Data from patent US20250313560A1, “Novel bicyclic benzylamido pyridine derivatives as SOS1 inhibitors” (Boehringer Ingelheim International GmbH, priority 2024, published 2025).

Assays:
[1] = target: SOS1 and KRAS G12C (Homo sapiens (Human), UniProt Q07889); experiment: KRAS::SOS1 AlphaScreen binding assay (KRAS G12C); settings: average of at least two measurements
[2] = target: SOS1 and KRAS G12D (Homo sapiens (Human), UniProt Q07889); experiment: KRAS::SOS1 AlphaScreen binding assay (KRAS G12D); settings: average of at least two measurements
Chain of SOS1 and KRAS G12D (Q07889 564-1049, stated change not applied): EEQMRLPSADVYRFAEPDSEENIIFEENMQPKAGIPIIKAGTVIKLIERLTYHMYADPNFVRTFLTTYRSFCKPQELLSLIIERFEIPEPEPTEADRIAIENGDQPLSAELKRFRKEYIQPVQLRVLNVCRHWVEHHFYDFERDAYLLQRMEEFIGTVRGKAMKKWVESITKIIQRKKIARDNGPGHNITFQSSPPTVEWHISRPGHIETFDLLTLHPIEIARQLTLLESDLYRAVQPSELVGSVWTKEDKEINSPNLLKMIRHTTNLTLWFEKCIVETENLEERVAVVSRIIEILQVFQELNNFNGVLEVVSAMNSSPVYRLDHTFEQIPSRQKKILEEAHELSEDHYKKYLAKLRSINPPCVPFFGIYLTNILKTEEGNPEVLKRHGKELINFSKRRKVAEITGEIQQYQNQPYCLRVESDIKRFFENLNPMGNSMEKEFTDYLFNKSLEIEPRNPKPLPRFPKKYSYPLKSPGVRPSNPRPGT

[3] = system: ERK phosphorylation in NCI-H358 SOS2 KO cells (KRAS G12C); experiment: Erk phosphorylation assay; type: cell-based, human; settings: Homo sapiens, NCI-H358, NCI-H358 SOS2 KO cells, EGF stimulated; average of at least two measurements; read-out: pERK IC50
Outline: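 NCI-H358 SOS2 KO cells (KRAS G12C) in DMEM/2% FBS were pretreated 50 min with compound, then stimulated with EGF (approx. 8 ng/mL) for 10-15 min. pERK1/2 (Thr202/Tyr204) measured in lysates by AlphaLISA SureFire; IC50 from variable-slope fit, averaged over at least two measurements.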

[4] = target: P450 3A4 (Homo sapiens (Human), UniProt P08684); experiment: Cytochrome P450 isoenzyme inhibition assay (P450 3A4, midazolam); type: in vitro ADME; settings: human liver microsomes, Midazolam as substrate; read-out: CYP3A4 inhibition IC50
Chain of P450 3A4 (P08684 whole entry): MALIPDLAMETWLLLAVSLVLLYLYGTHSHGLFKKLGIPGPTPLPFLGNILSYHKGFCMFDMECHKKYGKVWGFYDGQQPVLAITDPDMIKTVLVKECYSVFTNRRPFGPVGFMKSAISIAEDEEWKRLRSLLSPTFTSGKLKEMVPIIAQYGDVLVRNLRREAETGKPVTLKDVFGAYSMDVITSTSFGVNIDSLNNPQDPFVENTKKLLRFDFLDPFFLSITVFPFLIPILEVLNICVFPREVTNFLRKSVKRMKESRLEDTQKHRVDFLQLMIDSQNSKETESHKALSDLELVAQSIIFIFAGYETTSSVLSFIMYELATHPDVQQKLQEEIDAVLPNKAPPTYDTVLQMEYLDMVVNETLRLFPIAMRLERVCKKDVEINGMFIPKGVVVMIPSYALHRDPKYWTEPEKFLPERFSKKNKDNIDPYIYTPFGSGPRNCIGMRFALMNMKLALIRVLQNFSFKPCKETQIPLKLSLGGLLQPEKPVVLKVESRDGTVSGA
Outline: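 Midazolam (5 μM) hydroxylation by human liver microsomes (0.1 mg/ml) in 0.1 M TRIS with 5 mM MgCl2, started with 1 mM NADPH. Five compound concentrations in duplicate, e.g. top 50 μM with 1:4 dilutions. Metabolite quantified by LC-MS/MS against internal standard; IC50 from inhibition relative to no-compound control.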

[5] = target: CYP3A4 (Homo sapiens (Human), UniProt P08684); experiment: Mechanism-based inhibition of CYP3A4 assay (MBI 3A4); type: in vitro ADME; settings: human, human liver microsomes, probe midazolam 15 μM (hydroxy-midazolam formation), midazolam substrate, hydroxy-midazolam formation after 30 min preincubation relative to 0 min, read-out: MBI inhibition % ctrl. [%] with MDZ
Chain of CYP3A4 (P08684 whole entry): as above
Outline: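 Human liver microsomes (0.2 mg/mL) were preincubated with compound at 0, 5 or 25 μM plus 1 mM NADPH for 0, 10 or 30 min, then diluted 1:10 and incubated 10 min with 15 μM midazolam. Hydroxy-midazolam was measured by LC/MS-MS; readout is formation after 30 min relative to 0 min preincubation (%).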

[6] = system: human hepatocytes; experiment: Metabolic stability in human hepatocytes; settings: 1 μM test compound, 50% human serum, percentage of liver blood flow

Chain of SOS1 and KRAS G12C (Q07889 564-1049, stated change not applied): as the sequence (Q07889 564-1049, stated change not applied) above

SMILES	IC50 [1]	IC50 [2]	IC50 [3]	IC50 [4]	inhibition at 30 min [5]	Hepatic clearance - QH[%] in human hepatocytes [6]
C[C@@H](NC(=O)c1cc([C@H]2CC[C@H](N3C[C@H](F)C[C@@H]3CO)CC2)c2ncnn2c1)c1cccc(C(F)F)c1F [Example E60]	21 nM	20 nM	0.29 µM	> 50 µM	90%	26%
C[C@@H]1C[C@@H](O)CN1[C@H]1CC[C@H](c2cc(C(=O)N[C@H](C)c3cccc(C(F)F)c3F)cn3ncnc23)CC1 [Example E62]	22 nM	15 nM	0.315 µM	> 50 µM	98%	9%
C[C@@H](NC(=O)c1cc([C@H]2CC[C@H](N3CCC[C@@H](O)C3)CC2)c2ncnn2c1)c1cccc(C(F)(F)F)c1F [Example E68]	36 nM	27 nM	0.116 µM	> 50 µM	91%	12%
C[C@@H](NC(=O)c1cc([C@H]2CC[C@H](N3CC[C@H](O)C3)CC2)c2ncnn2c1)c1cccc(C(F)(F)F)c1F [Example E69]	28 nM	23 nM	0.218 µM	> 50 µM	85%	<4%
C[C@@H](NC(=O)c1cc(N2CCC(N3CCC[C@H]3CO)CC2)c2ncnn2c1)c1cccc(C(C)(F)F)c1F [Example E72]	33 nM	32 nM	0.092 µM	> 50 µM	98%	21%

Results, then the compound that gave them:

IC50 [1]	IC50 [2]	IC50 [3]	IC50 [4]	inhibition at 30 min [5]	Hepatic clearance - QH[%] in human hepatocytes [6]	SMILES
65 nM	52 nM	0.149 µM	> 50 µM	106%	15%	C[C@@H](NC(=O)c1cc(N2CCC(N3CC[C@@H](O)C3)CC2)c2ncnn2c1)c1cccc(C(F)(F)F)c1F [Example E57]
32 nM	32 nM	0.122 µM	> 50 µM	96%	15%	C[C@@H](NC(=O)c1cc([C@H]2CC[C@H](N3CCC[C@@H](O)C3)CC2)c2ncnn2c1)c1cccc(C(F)F)c1F [Example E58]
42 nM	41 nM	0.166 µM	> 50 µM	99%	15%	C[C@@H](NC(=O)c1cc([C@H]2CC[C@H](N3CC[C@](C)(O)C3)CC2)c2ncnn2c1)c1cccc(C(F)F)c1F [Example E59]
31 nM	27 nM	0.089 µM	> 50 µM	94%	23%	C[C@@H](NC(=O)c1cc(C2=CCC(N3CCC[C@H](O)C3)CC2)c2ncnn2c1)c1cccc(C(F)F)c1F (stereo partly drawn) [Example E63]
90 nM	93 nM	0.165 µM	> 50 µM	102%	38%	C[C@@H](NC(=O)c1cc([C@]2(O)CC[C@@H](N3CC[C@@H](F)C3)CC2)c2ncnn2c1)c1cccc(C(F)F)c1F [Example E65]
74 nM	79 nM	0.152 µM	> 50 µM	81%	32%	C[C@@H](NC(=O)c1cc([C@]2(O)CC[C@@H](N3CC[C@H](F)C3)CC2)c2ncnn2c1)c1cccc(C(F)F)c1F [Example E66]
33 nM	33 nM	0.046 µM	> 50 µM	95%	10%	C[C@@H](NC(=O)c1cc([C@H]2CC[C@H](N3CCC[C@H](O)C3)CC2)c2ncnn2c1)c1cccc(C(F)(F)F)c1F [Example E67]
79 nM	79 nM	0.196 µM	> 50 µM	94%	7%	C[C@@H](NC(=O)c1cc([C@]2(O)CC[C@@H](N3CC[C@H](F)C3)CC2)c2ncnn2c1)c1cccc(C(F)(F)F)c1F [Example E71]
